Results reported in ChEMBL document CHEMBL3885881, “DrugMatrix”.

Species: Rattus norvegicus
Experiment: DrugMatrix - Regimen: Daily Repeat
Assay type: toxicity, organism-based, Sprague-Dawley
Set-up: regimen Daily Repeat, gender Male, age 6-8 weeks
Details: in vivo, po, route oral GAVAGE, […]; for ABSOLUTE BASOPHIL / ABSOLUTE EOSINOPHIL / ABSOLUTE LYMPHOCYTE / ABSOLUTE MONOCYTE / ABSOLUTE SEGMENTED NEUTROPHIL / BASOPHIL / EOSINOPHIL / ERYTHROCYTE COUNT / HEMATOCRIT / HEMOGLOBIN / LEUKOCYTE COUNT / LYMPHOCYTE / MEAN CORPUSCULAR HEMOGLOBIN / MEAN CORPUSCULAR HEMOGLOBIN CONCENTRATION / MEAN CORPUSCULAR VOLUME / MONOCYTE / NEUTROPHIL / NUCLEATED RED BLOOD CELLS / PLATELET COUNT: tissue Blood; for ALANINE AMINOTRANSFERASE / ALBUMIN / ALKALINE PHOSPHATASE / ASPARTATE AMINOTRANSFERASE / BLOOD UREA NITROGEN / CARBON DIOXIDE / CHLORIDE / CHOLESTEROL / CREATINE PHOSPHOKINASE / CREATININE / GLUCOSE / LACTATE DEHYDROGENASE / LIPASE / PHOSPHORUS / POTASSIUM / SODIUM / TOTAL BILIRUBIN / TOTAL PROTEIN / URIC ACID: tissue Plasma
[1] = 48.8 mg/kg, 72 h, dose level Low, time 3 day
[2] = 48.8 mg/kg, 120 h, dose level Low, time 5 day
[3] = 488 mg/kg, 72 h, dose level High, time 3 day
[4] = 488 mg/kg, 120 h, dose level High, time 5 day

SMILES: C=CCc1ccc2c(c1)OCO2 [SAFROLE]
- ABSOLUTE BASOPHIL [1]: 0 CELLS/uL
- ABSOLUTE EOSINOPHIL [1]: 0 CELLS/uL
- ABSOLUTE LYMPHOCYTE [1]: 11419.67 CELLS/uL
- ABSOLUTE MONOCYTE [1]: 222 CELLS/uL
- ABSOLUTE SEGMENTED NEUTROPHIL [1]: 1191.67 CELLS/uL
- BASOPHIL [1]: 0%
- EOSINOPHIL [1]: 0%
- ERYTHROCYTE COUNT [1]: 5.33 x10E6/uL
- HEMATOCRIT [1]: 33.63%
- HEMOGLOBIN [1]: 13.47 G/DL
- LEUKOCYTE COUNT [1]: 12.83 x10E3/uL
- LYMPHOCYTE [1]: 89%
- MEAN CORPUSCULAR HEMOGLOBIN [1]: 25.3 pg
- MEAN CORPUSCULAR HEMOGLOBIN CONCENTRATION [1]: 40.03 G/DL
- MEAN CORPUSCULAR VOLUME [1]: 63.03 fL
- MONOCYTE [1]: 1.67%
- NEUTROPHIL [1]: 9.33%
- NUCLEATED RED BLOOD CELLS [1]: 0 /100WBC
- PLATELET COUNT [1]: 1123 x10E3/uL
- ALANINE AMINOTRANSFERASE [1]: 71.67 u/L
- ALBUMIN [1]: 4 G/DL
- ALKALINE PHOSPHATASE [1]: 447.67 u/L
- ASPARTATE AMINOTRANSFERASE [1]: 90.67 u/L
- BLOOD UREA NITROGEN [1]: 13.33 mg/dL
- CARBON DIOXIDE [1]: 26 mmol/L
- CHLORIDE [1]: 101.67 MEQ/L
- CHOLESTEROL [1]: 78.67 mg/dL
- CREATINE PHOSPHOKINASE [1]: 266.33 u/L
- CREATININE [1]: 0.21 mg/dL
- GLUCOSE [1]: 149.33 mg/dL
- LACTATE DEHYDROGENASE [1]: 158.33 u/L
- LIPASE [1]: 11.67 u/L
- PHOSPHORUS [1]: 11.73 mg/dL
- POTASSIUM [1]: 6.6 MEQ/L
- SODIUM [1]: 143.53 MEQ/L
- TOTAL BILIRUBIN [1]: 0.23 mg/dL
- TOTAL PROTEIN [1]: 5.57 G/DL
- URIC ACID [1]: 1.4 mg/dL
- ABSOLUTE BASOPHIL [2]: 0 CELLS/uL
- ABSOLUTE EOSINOPHIL [2]: 30.67 CELLS/uL
- ABSOLUTE LYMPHOCYTE [2]: 9371 CELLS/uL
- ABSOLUTE MONOCYTE [2]: 61.33 CELLS/uL
- ABSOLUTE SEGMENTED NEUTROPHIL [2]: 1037 CELLS/uL
- BASOPHIL [2]: 0%
- EOSINOPHIL [2]: 0.33%
- ERYTHROCYTE COUNT [2]: 5.63 x10E6/uL
- HEMATOCRIT [2]: 35.6%
- HEMOGLOBIN [2]: 14.13 G/DL
- LEUKOCYTE COUNT [2]: 10.5 x10E3/uL
- LYMPHOCYTE [2]: 89%
- MEAN CORPUSCULAR HEMOGLOBIN [2]: 25.07 pg
- MEAN CORPUSCULAR HEMOGLOBIN CONCENTRATION [2]: 39.67 G/DL
- MEAN CORPUSCULAR VOLUME [2]: 63.27 fL
- MONOCYTE [2]: 0.67%
- NEUTROPHIL [2]: 10%
- NUCLEATED RED BLOOD CELLS [2]: 1 /100WBC
- PLATELET COUNT [2]: 1163.33 x10E3/uL
- ALANINE AMINOTRANSFERASE [2]: 65 u/L
- ALBUMIN [2]: 4.07 G/DL
- ALKALINE PHOSPHATASE [2]: 334.67 u/L
- ASPARTATE AMINOTRANSFERASE [2]: 88.67 u/L
- BLOOD UREA NITROGEN [2]: 12 mg/dL
- CARBON DIOXIDE [2]: 31.33 mmol/L
- CHLORIDE [2]: 102 MEQ/L
- CHOLESTEROL [2]: 59.67 mg/dL
- CREATINE PHOSPHOKINASE [2]: 260.67 u/L
- CREATININE [2]: 0.22 mg/dL
- GLUCOSE [2]: 164.33 mg/dL
- LACTATE DEHYDROGENASE [2]: 263.33 u/L
- LIPASE [2]: 11.67 u/L
- PHOSPHORUS [2]: 10.97 mg/dL
- POTASSIUM [2]: 6.08 MEQ/L
- SODIUM [2]: 144.37 MEQ/L
- TOTAL BILIRUBIN [2]: 0.17 mg/dL
- TOTAL PROTEIN [2]: 5.7 G/DL
- URIC ACID [2]: 1.8 mg/dL
- ABSOLUTE BASOPHIL [3]: 0 CELLS/uL
- ABSOLUTE EOSINOPHIL [3]: 78 CELLS/uL
- ABSOLUTE LYMPHOCYTE [3]: 16011.33 CELLS/uL
- ABSOLUTE MONOCYTE [3]: 75.33 CELLS/uL
- ABSOLUTE SEGMENTED NEUTROPHIL [3]: 1335.33 CELLS/uL
- BASOPHIL [3]: 0%
- EOSINOPHIL [3]: 0.33%
- ERYTHROCYTE COUNT [3]: 6.08 x10E6/uL
- HEMATOCRIT [3]: 37.6%
- HEMOGLOBIN [3]: 15.17 G/DL
- LEUKOCYTE COUNT [3]: 17.5 x10E3/uL
- LYMPHOCYTE [3]: 90.67%
- MEAN CORPUSCULAR HEMOGLOBIN [3]: 24.93 pg
- MEAN CORPUSCULAR HEMOGLOBIN CONCENTRATION [3]: 40.33 G/DL
- MEAN CORPUSCULAR VOLUME [3]: 61.83 fL
- MONOCYTE [3]: 0.67%
- NEUTROPHIL [3]: 8.33%
- NUCLEATED RED BLOOD CELLS [3]: 0 /100WBC
- PLATELET COUNT [3]: 1291.67 x10E3/uL
- ALANINE AMINOTRANSFERASE [3]: 88.33 u/L
- ALBUMIN [3]: 3.93 G/DL
- ALKALINE PHOSPHATASE [3]: 421 u/L
- ASPARTATE AMINOTRANSFERASE [3]: 112.67 u/L
- BLOOD UREA NITROGEN [3]: 8.33 mg/dL
- CARBON DIOXIDE [3]: 23.33 mmol/L
- CHLORIDE [3]: 105.67 MEQ/L
- CHOLESTEROL [3]: 87.33 mg/dL
- CREATINE PHOSPHOKINASE [3]: 340.33 u/L
- CREATININE [3]: 0.13 mg/dL
- GLUCOSE [3]: 142 mg/dL
- LACTATE DEHYDROGENASE [3]: 539.33 u/L
- LIPASE [3]: 12 u/L
- PHOSPHORUS [3]: 13.57 mg/dL
- POTASSIUM [3]: 6.52 MEQ/L
- SODIUM [3]: 146.57 MEQ/L
- TOTAL BILIRUBIN [3]: 0.2 mg/dL
- TOTAL PROTEIN [3]: 5.33 G/DL
- URIC ACID [3]: 2.37 mg/dL
- ABSOLUTE BASOPHIL [4]: 0 CELLS/uL
- ABSOLUTE EOSINOPHIL [4]: 0 CELLS/uL
- ABSOLUTE LYMPHOCYTE [4]: 12133.67 CELLS/uL
- ABSOLUTE MONOCYTE [4]: 150 CELLS/uL
- ABSOLUTE SEGMENTED NEUTROPHIL [4]: 1216.33 CELLS/uL
- BASOPHIL [4]: 0%
- EOSINOPHIL [4]: 0%
- ERYTHROCYTE COUNT [4]: 6.25 x10E6/uL
- HEMATOCRIT [4]: 37.83%
- HEMOGLOBIN [4]: 14.97 G/DL
- LEUKOCYTE COUNT [4]: 13.5 x10E3/uL
- LYMPHOCYTE [4]: 89.33%
- MEAN CORPUSCULAR HEMOGLOBIN [4]: 23.97 pg
- MEAN CORPUSCULAR HEMOGLOBIN CONCENTRATION [4]: 39.53 G/DL
- MEAN CORPUSCULAR VOLUME [4]: 60.6 fL
- MONOCYTE [4]: 1%
- NEUTROPHIL [4]: 9.67%
- NUCLEATED RED BLOOD CELLS [4]: 0 /100WBC
- PLATELET COUNT [4]: 1251.67 x10E3/uL
- ALANINE AMINOTRANSFERASE [4]: 106.33 u/L
- ALBUMIN [4]: 3.87 G/DL
- ALKALINE PHOSPHATASE [4]: 337.67 u/L
- ASPARTATE AMINOTRANSFERASE [4]: 130.67 u/L
- BLOOD UREA NITROGEN [4]: 10.33 mg/dL
- CARBON DIOXIDE [4]: 24 mmol/L
- CHLORIDE [4]: 102.33 MEQ/L
- CHOLESTEROL [4]: 116.33 mg/dL
- CREATINE PHOSPHOKINASE [4]: 612.33 u/L
- CREATININE [4]: 0.19 mg/dL
- GLUCOSE [4]: 123.33 mg/dL
- LACTATE DEHYDROGENASE [4]: 662.67 u/L
- LIPASE [4]: 12.67 u/L
- PHOSPHORUS [4]: 11.8 mg/dL
- POTASSIUM [4]: 5.41 MEQ/L
- SODIUM [4]: 142.07 MEQ/L
- TOTAL BILIRUBIN [4]: 0.17 mg/dL
- TOTAL PROTEIN [4]: 5.6 G/DL
- URIC ACID [4]: 1.37 mg/dL
